For 14 molecules, IC50 results are on record in US20250163104A1, “MACROCYCLIC IMMUNOMODULATORS” (priority 2021, published 2025).

The target of this experiment is T1, human PD-1 / PD-L1-Ig binding on Jurkat cell line over-expressing human PD-1 (Jurkat-PD-1) (Homo sapiens, UniProt Q15116).
T1 construct: expressed in transfected cells; host or cells: Jurkat
Nature of the experiment: Jurkat-PD-1 Cell Binding High-Content Screening Assay (CBA). As to conditions: Jurkat-PD-1 cells, PE-labeled PD-L1-Ig 20 nM final; read-out: Jurkat HPD1_PDL1 IC50. The class given is cell-based. Put shortly: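 Compounds were preincubated with Jurkat-hPD-1 cells in DMEM plus 10% fetal calf serum for 2 h at 37° C. Phycoerythrin-labeled PD-L1-Ig (20 nM final) was then added for 1 hour. Cells were fixed in 4% paraformaldehyde with Hoechst 33342, and bound fluorescence was quantified by high-content imaging.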

Structures are written as SMILES. pIC50: −log10 of the molar value. Where a SMILES comes first, the peptide text is derived from it. Bridges are numbered along the chain shown (N, C = ends). [ ]: non-standard residue; d: D form. The star is where a group is joined. Phe(3,4,5-F3) = N[C@@H](Cc1cc(F)c(F)c(F)c1)C(=O)O; Tyr(3,5-F2) = N[C@@H](Cc1cc(F)c(O)c(F)c1)C(=O)O; Ala(morpholin-4-yl) = N[C@@H](CN1CCOCC1)C(=O)O; Phe(4-COOH) = N[C@@H](Cc1ccc(C(=O)O)cc1)C(=O)O; Bip = N[C@@H](Cc1ccc(-c2ccccc2)cc1)C(=O)O; Phe(2-Cl) = N[C@@H](Cc1ccccc1Cl)C(=O)O; Phe(3-Me) = Cc1cccc(C[C@H](N)C(=O)O)c1; Val(3-OH) = CC(C)(O)[C@H](N)C(=O)O; 4Pal = N[C@@H](Cc1ccncc1)C(=O)O; 2Thi = N[C@@H](Cc1cccs1)C(=O)O; Cha = N[C@@H](CC1CCCCC1)C(=O)O; Cit = NC(=O)NCCC[C@H](N)C(=O)O; Ahp(2) = CCCCC[C@H](N)C(=O)O; Tle = CC(C)(C)[C@H](N)C(=O)O; dOrn = NCCC[C@@H](N)C(=O)O; Carboxymethyl = O=C(O)C*; Orn = NCCC[C@H](N)C(=O)O; Pra = C#CC[C@H](N)C(=O)O; Dab = NCC[C@H](N)C(=O)O; Dap = NC[C@H](N)C(=O)O; Propargyl = C#CC*

T1 sequence (Q15116 25-288): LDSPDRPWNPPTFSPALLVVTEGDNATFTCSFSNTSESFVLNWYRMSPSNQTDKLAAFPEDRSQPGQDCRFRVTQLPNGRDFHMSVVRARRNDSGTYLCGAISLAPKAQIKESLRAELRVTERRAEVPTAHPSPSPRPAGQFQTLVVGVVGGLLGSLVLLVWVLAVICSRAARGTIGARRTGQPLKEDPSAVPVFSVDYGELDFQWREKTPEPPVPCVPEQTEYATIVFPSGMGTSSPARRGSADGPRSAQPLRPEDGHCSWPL

A word on the pIC50: it is the negative decadic logarithm of the IC50, by convention in mol/L. In the case of `CCC(C)[C@@H]1NC(=O)[C@H](Cc2ccc(-c3ccccc3)cc2)NC(=O)[C@H](C(C)C)NC(=O)[C@H](Cc2c[nH]c3ccccc23)NC(=O)[C@H](CC(=O)O)NC(=O)[C@H](Cc2ccc(OCC(=O)O)cc2)NC(=O)[C@H](Cc2cc[nH]c2)NC(=O)CSC[C@@H](C(=O)N[C@H](C)C(N)=O)NC(=O)[C@H](C(C)O)NC(=O)[C@H](C(C)(C)O)NC(=O)[C@H](CC2CCCCC2)NC(=O)[C@H](CCN)NC(=O)[C@@H](CC(C)C)NC(=O)[C@H](CCCN)NC1=O` (some centres unmarked) [Compound 2662], the pIC50 is 8.08.
Next, `CC(C)C[C@H]1NC(=O)[C@H](CCCN)NC(=O)[C@H](CCC(=O)O)NC(=O)[C@H](Cc2ccc(-c3ccccc3)cc2)NC(=O)[C@H](C(C)C)NC(=O)[C@H](Cc2c[nH]c3ccccc23)NC(=O)[C@H](CC(=O)O)NC(=O)[C@H](Cc2ccc(OCC(=O)O)cc2)NC(=O)[C@H](CN)NC(=O)CSC[C@@H](C(=O)N[C@@H](C)C(N)=O)NC(=O)[C@H]([C@@H](C)O)NC(=O)[C@H](C(C)C)NC(=O)[C@H](Cc2ccccc2Cl)NC(=O)[C@H](CCN)NC1=O` [Compound 1483] ({CH2CO}-[Dap]Y(Carboxymethyl)DWV[Bip]E[Orn][dL][Dab][Phe(2-Cl)]VTCA-NH2; thioether N-14): 7.46; `Cc1cccc(C[C@@H]2NC(=O)[C@H](CC(=O)O)NC(=O)[C@H](Cc3ccc(C(=O)O)cc3)NC(=O)[C@H](Cc3ccncc3)NC(=O)CSC[C@@H](C(=O)N[C@@H](CCN)C(N)=O)NC(=O)[C@H](CO)NC(=O)[C@H](C(C)(C)C)NC(=O)[C@H](CC3CCCCC3)NC(=O)[C@H](CCN)NC(=O)[C@@H](CC(C)C)NC(=O)[C@H](CCCN)NC(=O)[C@H](Cc3ccc(OCC(=O)O)cc3)NC(=O)[C@H](Cc3ccc(-c4ccccc4)cc3)NC(=O)[C@H](Cc3ccc(OCC(=O)O)cc3)NC2=O)c1` [Compound 2294] ({CH2CO}-[4Pal][Phe(4-COOH)]D[Phe(3-Me)]Y(Carboxymethyl)[Bip]Y(Carboxymethyl)[Orn][dL][Dab][Cha][Tle]SC[Dab]-NH2; thioether N-14): 8.03.
The value for `CCCCC[C@@H]1NC(=O)[C@H](C(C)C)NC(=O)[C@H](Cc2ccccc2)NC(=O)[C@H](CC(=O)O)NC(=O)[C@H](CCCNC(=N)N)NC(=O)[C@H](Cc2ccc(-c3ccccc3)cc2)NC(=O)[C@H](C(C)C)NC(=O)[C@H](Cc2c[nH]c3ccccc23)NC(=O)[C@H](CC(=O)O)NC(=O)[C@H](Cc2ccc(O)cc2)NC(=O)[C@H](Cc2ccccc2)NC(=O)CSC[C@@H](C(=O)NCC(N)=O)NC(=O)[C@H](CO)NC(=O)[C@H](C(C)C)NC1=O` [Compound 1003] ({CH2CO}-FYDWV[Bip]RDFV[Ahp(2)]VSCG-NH2; thioether N-14) was 6.21; that for `CC(C)C[C@H]1NC(=O)[C@H](CCCN)NC(=O)[C@H](CCC(=O)O)NC(=O)[C@H](Cc2ccc(-c3ccccc3)cc2)NC(=O)[C@H](C(C)C)NC(=O)[C@H](Cc2cccs2)NC(=O)[C@H](CC(=O)O)NC(=O)[C@H](Cc2cccs2)NC(=O)[C@H](CN)NC(=O)CSC[C@@H](C(=O)N[C@@H](C)C(N)=O)NC(=O)[C@H]([C@@H](C)O)NC(=O)[C@H](C(C)C)NC(=O)[C@H](CC2CCCCC2)NC(=O)[C@H](CCN)NC1=O` [Compound 2205] ({CH2CO}-[Dap][2Thi]D[2Thi]V[Bip]E[Orn][dL][Dab][Cha]VTCA-NH2; thioether N-14) was 7.73.
The value for `CC(C)C[C@H]1NC(=O)[C@H](CCCN)NC(=O)[C@H](CCCNC(N)=O)NC(=O)[C@H](Cc2ccc(-c3ccccc3)cc2)NC(=O)[C@H](C(C)C)NC(=O)[C@H](Cc2c[nH]c3ccccc23)NC(=O)[C@H](CC(=O)O)NC(=O)[C@H](Cc2cc(F)c(F)c(F)c2)NC(=O)[C@H](CN)NC(=O)CSC[C@@H](C(=O)N[C@@H](C)C(N)=O)NC(=O)[C@H]([C@@H](C)O)NC(=O)[C@H](C(C)C)NC(=O)[C@H](CC2CCCCC2)NC(=O)[C@H](CCN)NC1=O` [Compound 2127] ({CH2CO}-[Dap][Phe(3,4,5-F3)]DWV[Bip][Cit][Orn][dL][Dab][Cha]VTCA-NH2; thioether N-14) was 7.32.
With `CC(C)C[C@@H]1NC(=O)[C@H](CCN)NC(=O)[C@@H](CC(C)C)NC(=O)[C@@H](CCCN)NC(=O)[C@H](C(C)C)NC(=O)[C@H](Cc2ccc(-c3ccccc3)cc2)NC(=O)[C@H](C(C)C)NC(=O)[C@H](Cc2c[nH]c3ccccc23)NC(=O)[C@H](CC(=O)O)NC(=O)[C@H](Cc2ccc(O)cc2)NC(=O)[C@H](CC(N)=O)NC(=O)CSC[C@@H](C(=O)N[C@@H](C)C(N)=O)NC(=O)[C@H]([C@@H](C)O)NC(=O)[C@H](C(C)C)NC1=O` [Compound 1027] ({CH2CO}-NYDWV[Bip]V[dOrn][dL][Dab]LVTCA-NH2; thioether N-14), the negative logarithm of the IC50 (pIC50) is 7.71.
Turning to `C#CCOc1ccc(C[C@@H]2NC(=O)[C@H](C(C)C)NC(=O)[C@H](CC3CCCCC3)NC(=O)[C@H](CCN)NC(=O)[C@@H](CC(C)C)NC(=O)[C@H](CCCN)NC(=O)[C@H](Cc3ccc(OCC(=O)O)cc3)NC(=O)[C@H](Cc3ccc(-c4ccccc4)cc3)NC(=O)[C@H](Cc3ccc(OCC(=O)O)cc3)NC(=O)[C@H](Cc3cccc(C)c3)NC(=O)[C@H](CC(=O)O)NC(=O)[C@H](Cc3ccc(OCC(=O)O)cc3)NC(=O)[C@H](Cc3ccncc3)NC(=O)CSC[C@@H](C(=O)N[C@@H](CCN)C(N)=O)NC2=O)cc1` [Compound 1821] ({CH2CO}-[4Pal]Y(Carboxymethyl)D[Phe(3-Me)]Y(Carboxymethyl)[Bip]Y(Carboxymethyl)[Orn][dL][Dab][Cha]VY(Propargyl)C[Dab]-NH2; thioether N-14), the pIC50 was 6.72.
For `COc1ccc(C[C@@H]2NC(=O)[C@H](CCN)NC(=O)[C@@H](CC(C)C)NC(=O)[C@H](CCCN)NC(=O)[C@H](CCCNC(N)=O)NC(=O)[C@H](Cc3ccc(-c4ccccc4)cc3)NC(=O)[C@H](C(C)C)NC(=O)[C@H](Cc3c[nH]c4ccccc34)NC(=O)[C@H](CC(=O)O)NC(=O)[C@H](Cc3ccc(OCC(=O)O)cc3)NC(=O)[C@H](CN)NC(=O)CSC[C@@H](C(=O)N[C@@H](C)C(N)=O)NC(=O)[C@H]([C@@H](C)O)NC(=O)[C@H](C(C)C)NC2=O)cc1` [Compound 1351] ({CH2CO}-[Dap]Y(Carboxymethyl)DWV[Bip][Cit][Orn][dL][Dab]Y(Me)VTCA-NH2; thioether N-14), the negative logarithm of the IC50 (pIC50) was 6.92.
The value for `CC(C)C[C@H]1NC(=O)[C@H](CCCN)NC(=O)[C@H](C(C)C)NC(=O)[C@H](Cc2ccc(-c3ccccc3)cc2)NC(=O)[C@H](C(C)C)NC(=O)[C@H](Cc2cc(F)c(O)c(F)c2)NC(=O)[C@H](CC(=O)O)NC(=O)[C@H](Cc2ccc(OCC(=O)O)cc2)NC(=O)[C@H](CN)NC(=O)CSC[C@@H](C(=O)N[C@@H](CCN)C(N)=O)NC(=O)[C@H](CCCCN)NC(=O)[C@H](C(C)C)NC(=O)[C@H](CC2CCCCC2)NC(=O)[C@H](CCN)NC1=O` [Compound 2034] ({CH2CO}-[Dap]Y(Carboxymethyl)D[Tyr(3,5-F2)]V[Bip]V[Orn][dL][Dab][Cha]VKC[Dab]-NH2; thioether N-14) was 7.08; that for `CC(C)C[C@H]1NC(=O)[C@H](CCCN)NC(=O)[C@H](C(C)C)NC(=O)[C@H](Cc2ccc(-c3ccccc3)cc2)NC(=O)[C@H](C(C)C)NC(=O)[C@H](Cc2c[nH]c3ccccc23)NC(=O)[C@H](CC(=O)O)NC(=O)[C@H](Cc2ccc(C(=O)O)cc2)NC(=O)[C@H](Cc2ccncc2)NC(=O)CSC[C@@H](C(=O)N[C@@H](C)C(N)=O)NC(=O)[C@H]([C@@H](C)O)NC(=O)[C@H](C(C)C)NC(=O)[C@H](CC2CCCCC2)NC(=O)[C@H](CCN)NC1=O` [Compound 1689] was 7.57.
Next, `C#CC[C@H](NC(=O)[C@H](CCN)NC(=O)[C@@H]1CSCC(=O)N[C@@H](CN2CCOCC2)C(=O)N[C@@H](Cc2ccc(C(=O)O)cc2)C(=O)N[C@@H](CC(=O)O)C(=O)N[C@@H](Cc2cccc(C)c2)C(=O)N[C@@H](Cc2ccc(C(=O)O)cc2)C(=O)N[C@@H](Cc2ccc(-c3ccccc3)cc2)C(=O)N[C@@H](Cc2ccc(C(=O)O)cc2)C(=O)N[C@@H](CCCN)C(=O)N[C@H](CC(C)C)C(=O)N[C@@H](CCN)C(=O)N[C@@H](CC2CCCCC2)C(=O)N[C@@H](C(C)(C)O)C(=O)N[C@@H](CO)C(=O)N1)C(N)=O` [Compound 1847] ({CH2CO}-[Ala(morpholin-4-yl)][Phe(4-COOH)]D[Phe(3-Me)][Phe(4-COOH)][Bip][Phe(4-COOH)][Orn][dL][Dab][Cha][Val(3-OH)]SC[Dab][Pra]-NH2; thioether N-14): 8.68.
The value for `CC(C)C[C@@H]1NC(=O)[C@H](CCN)NC(=O)[C@@H](CC(C)C)NC(=O)[C@H](CCCN)NC(=O)[C@H](C(C)C)NC(=O)[C@H](Cc2ccc(-c3ccccc3)cc2)NC(=O)[C@H](C(C)C)NC(=O)[C@H](Cc2c[nH]c3ccccc23)NC(=O)[C@H](CC(=O)O)NC(=O)[C@H](Cc2ccc(C(=O)O)cc2)NC(=O)[C@H](Cc2ccc(OCC(=O)O)cc2)NC(=O)CSC[C@@H](C(=O)N[C@@H](C)C(N)=O)NC(=O)[C@H]([C@@H](C)O)NC(=O)[C@H](C(C)C)NC1=O` [Compound 1248] ({CH2CO}-Y(Carboxymethyl)[Phe(4-COOH)]DWV[Bip]V[Orn][dL][Dab]LVTCA-NH2; thioether N-14) was 7.91; that for `Cc1cccc(C[C@@H]2NC(=O)[C@H](CC(=O)O)NC(=O)[C@H](Cc3ccc(C(=O)O)cc3)NC(=O)[C@H](Cc3ccncc3)NC(=O)CSC[C@@H](C(=O)N[C@@H](CO)C(N)=O)NC(=O)[C@H](CCC(N)=O)NC(=O)[C@H](C(C)C)NC(=O)[C@H](CC3CCCCC3)NC(=O)[C@H](CCN)NC(=O)[C@@H](CC(C)C)NC(=O)[C@H](CCCN)NC(=O)[C@H](Cc3ccc(OCC(=O)O)cc3)NC(=O)[C@H](Cc3ccc(-c4ccccc4)cc3)NC(=O)[C@H](Cc3ccc(OCC(=O)O)cc3)NC2=O)c1` [Compound 2312] ({CH2CO}-[4Pal][Phe(4-COOH)]D[Phe(3-Me)]Y(Carboxymethyl)[Bip]Y(Carboxymethyl)[Orn][dL][Dab][Cha]VQCS-NH2; thioether N-14) was 8.10.
